Assay results taken from the supplement of paper PMC11208160.

Assay: recombinant barcode read abundance after kanamycin selection (control-corrected) (log10(CPM+1)); higher = more efficient recombination; sequences stand for … in AGTGCAGAGAAAATCGGCCAGTTTTCTCTGCCTGCAGTCCGCATGCCGT…AGATTTATGCAGCGGACTGCCTTTCTCCCAAAGTGATAAACCGGACAGTATCATGGACCGGTTTTCCCGGTAATCCGTATTTGCAAGGTTGGTTTCACT; site = the 11-nt target
In short: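 Duplicate cultures were plated either on chloramphenicol/ampicillin LB agar, serving as control, or on chloramphenicol/ampicillin/kanamycin with 0.1 mM IPTG. These came from a pooled E. coli library co-electroporated with a donor plasmid, each member pairing a target with an IS621 bridge RNA target-binding loop. Recombination efficiency equals averaged, control-corrected counts per million of recombinant-junction barcodes. It is listed as log10(CPM+1).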
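Note: IS621 recombinase and bridge RNA in Escherichia coli cells.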

Sequence	recombinant barcode read abundance (log10)
TCATTGACTTGGGTTCTAACCTGTTGCCT (site TCATTGACTAG)	0.622
TCATTGACTTGGGTTCTAACCTGTTGCCT (site TTATTCACTAG)	0.0739
TCCAAATCTTGGGTTCTAACCTGTTGCCT (site AGACTGACTCC)	0.109
TCCAAATCTTGGGTTCTAACCTGTTGCCT (site TCCAAATCTAG)	0.317
TCCAACCCTTGGGTTCTAACCTGTTGCAG (site TCCAAACCTCT)	0.066
TCCAACCCTTGGGTTCTAACCTGTTGCAG (site TCCAACCCTCT)	1.69
TCCAACCCTTGGGTTCTAACCTGTTGCAG (site TCCAAGCCTCT)	0.0523
TCCAACCCTTGGGTTCTAACCTGTTGCAG (site TCCAATCCTCT)	0.0309
TCCAACCCTTGGGTTCTAACCTGTTGCTG (site GCCAAGCCTCA)	0.0799
TCCAACCCTTGGGTTCTAACCTGTTGCTG (site TCCAACCCTCA)	1.65
TCCAACCCTTGGGTTCTAACCTGTTGCTT (site CAGGGGACTGT)	0.0296
TCCAACCCTTGGGTTCTAACCTGTTGCTT (site TCCAACCCTAA)	0.391
TCCAACTCTTGGGTTCTAACCTGTTGCAC (site CATCCTACTAG)	0.0443
TCCAACTCTTGGGTTCTAACCTGTTGCAC (site TCCAACTCTGT)	0.903
TCCAAGGCTTGGGTTCTAACCTGTTGCTA (site CTGCGTACTCG)	0.0788
TCCAAGGCTTGGGTTCTAACCTGTTGCTA (site TCCAAGGCTTA)	0.275
TCCAATACTTGGGTTCTAACCTGTTGCCG (site TCCAACACTCG)	0.0602
TCCAATACTTGGGTTCTAACCTGTTGCCG (site TCCAATACTCG)	0.269
TCCAGCTCTTGGGTTCTAACCTGTTGCCT (site ACCAGATCTAG)	0.0273
TCCAGCTCTTGGGTTCTAACCTGTTGCCT (site TCCAGCTCTAG)	0.631
TCCAGGGCTTGGGTTCTAACCTGTTGCCT (site TCCAGGGCTAG)	0.185
TCCAGGGCTTGGGTTCTAACCTGTTGCCT (site TCCTGGCCTAG)	0.0786

Sequence	recombinant barcode read abundance (log10)
TCCAGTACTTGGGTTCTAACCTGTTGCAT (site TCCAGTACTAT)	0.351
TCCAGTACTTGGGTTCTAACCTGTTGCAT (site TCCCGTACTAT)	0.0322
TCCAGTACTTGGGTTCTAACCTGTTGCAT (site TCCGGTACTAT)	0.564
TCCAGTACTTGGGTTCTAACCTGTTGCAT (site TCCTGTACTAT)	0.105
TCCCATACTTGGGTTCTAACCTGTTGCGA (site CTTGGGTCTAT)	0.0603
TCCCATACTTGGGTTCTAACCTGTTGCGA (site TCCCATACTTC)	1.57
TCCCATCCTTGGGTTCTAACCTGTTGCCT (site TCCCATACTAG)	0.0689
TCCCATCCTTGGGTTCTAACCTGTTGCCT (site TCCCATCCTAG)	0.757
TCCCATCCTTGGGTTCTAACCTGTTGCCT (site TCCCATGCTAG)	0.0237
TCCCATCCTTGGGTTCTAACCTGTTGCCT (site TCCCATTCTAG)	0.592
TCCCATCCTTGGGTTCTAACCTGTTGCGT (site TCCCATCCTAC)	2.38
TCCCATCCTTGGGTTCTAACCTGTTGCGT (site TCCTATCCTAC)	0.0583
TCCCGTACTTGGGTTCTAACCTGTTGCAT (site TCCAGTACTAT)	0.382
TCCCGTACTTGGGTTCTAACCTGTTGCAT (site TCCCGTACTAT)	0.43
TCCCGTACTTGGGTTCTAACCTGTTGCAT (site TCCGGTACTAT)	0.0638
TCCCGTACTTGGGTTCTAACCTGTTGCAT (site TCCTGTACTAT)	0.159
TCCCTATCTTGGGTTCTAACCTGTTGCCT (site TACCTATCTAG)	0.223
TCCCTATCTTGGGTTCTAACCTGTTGCCT (site TCCCTATCTAG)	0.758
TCCCTATCTTGGGTTCTAACCTGTTGCCT (site TGCCTATCTAG)	0.0386
TCCCTATCTTGGGTTCTAACCTGTTGCCT (site TTCCTATCTAG)	0.0651
TCCGACCCTTGGGTTCTAACCTGTTGCAC (site TCCGACCCTGT)	2.54
TCCGACCCTTGGGTTCTAACCTGTTGCAC (site TCCGTCCCTAT)	0.0486

Sequence	recombinant barcode read abundance (log10)
TCCGAGACTTGGGTTCTAACCTGTTGCCG (site TCCGAGACTAG)	0.541
TCCGAGACTTGGGTTCTAACCTGTTGCCG (site TCCGAGACTCG)	1.93
TCCGAGACTTGGGTTCTAACCTGTTGCCG (site TCCGAGACTGG)	0.0458
TCCGAGACTTGGGTTCTAACCTGTTGCCG (site TCCGAGACTTG)	0.0796
TCCGATTCTTGGGTTCTAACCTGTTGCGT (site GCCTATTCTAC)	0.19
TCCGATTCTTGGGTTCTAACCTGTTGCGT (site TCCGATTCTAC)	1.7
TCCGCTACTTGGGTTCTAACCTGTTGCCT (site TCCGCTACTAG)	0.0438
TCCGCTACTTGGGTTCTAACCTGTTGCCT (site TCCGCTCCTAG)	0.0689
TCCGCTACTTGGGTTCTAACCTGTTGCCT (site TCCGCTGCTAG)	0.0537
TCCGCTACTTGGGTTCTAACCTGTTGCCT (site TCCGCTTCTAG)	0.107
TCCGCTTCTTGGGTTCTAACCTGTTGCCT (site TCCGCTACTAG)	0.321
TCCGCTTCTTGGGTTCTAACCTGTTGCCT (site TCCGCTCCTAG)	0.259
TCCGCTTCTTGGGTTCTAACCTGTTGCCT (site TCCGCTGCTAG)	0.0858
TCCGCTTCTTGGGTTCTAACCTGTTGCCT (site TCCGCTTCTAG)	0.487
TCCGCTTCTTGGGTTCTAACCTGTTGCTT (site AATCGAGCTCC)	0.0408
TCCGCTTCTTGGGTTCTAACCTGTTGCTT (site TCCGCTTCTAA)	0.0659
TCCGGTACTTGGGTTCTAACCTGTTGCTT (site TCCAGTACTAA)	0.0783
TCCGGTACTTGGGTTCTAACCTGTTGCTT (site TCCGGTACTAA)	0.438
TCCTAACCTTGGGTTCTAACCTGTTGCCT (site TCCTAACCTAG)	0.454
TCCTAACCTTGGGTTCTAACCTGTTGCCT (site TCCTAATCTAT)	0.0117
TCCTAAGCTTGGGTTCTAACCTGTTGCGG (site TCCTAAGCTCC)	1.67
TCCTAAGCTTGGGTTCTAACCTGTTGCGG (site TGCTAAGCTCA)	0.276

Sequence	recombinant barcode read abundance (log10)
TCCTAAGCTTGGGTTCTAACCTGTTGCTA (site TCCAAAGCTTA)	0.05
TCCTAAGCTTGGGTTCTAACCTGTTGCTA (site TCCCAAGCTTA)	0.227
TCCTAAGCTTGGGTTCTAACCTGTTGCTA (site TCCGAAGCTTA)	0.372
TCCTAAGCTTGGGTTCTAACCTGTTGCTA (site TCCTAAGCTTA)	0.161
TCCTAATCTTGGGTTCTAACCTGTTGCTT (site CGGGCTACTTG)	0.284
TCCTAATCTTGGGTTCTAACCTGTTGCTT (site TCCTAATCTAA)	0.111
TCCTATCCTTGGGTTCTAACCTGTTGCGA (site GTGGGAACTAA)	0.0465
TCCTATCCTTGGGTTCTAACCTGTTGCGA (site TCCTATCCTTC)	0.513
TCCTATGCTTGGGTTCTAACCTGTTGCCG (site GAAAGCTCTAC)	0.0567
TCCTATGCTTGGGTTCTAACCTGTTGCCG (site TCCTATGCTCG)	0.444
TCCTCGTCTTGGGTTCTAACCTGTTGCCT (site GCCTGGTCTAG)	0.00881
TCCTCGTCTTGGGTTCTAACCTGTTGCCT (site TCCTCGTCTAG)	0.669
TCCTGTACTTGGGTTCTAACCTGTTGCCT (site TCCTGTACTAG)	0.239
TCCTGTACTTGGGTTCTAACCTGTTGCCT (site TCCTGTCCTAT)	0.108
TCCTTAGCTTGGGTTCTAACCTGTTGCCG (site TCCTGAGCTCA)	0.155
TCCTTAGCTTGGGTTCTAACCTGTTGCCG (site TCCTTAGCTCG)	0.0503
TCGAACCCTTGGGTTCTAACCTGTTGCGG (site TCAAACCCTCC)	0.991
TCGAACCCTTGGGTTCTAACCTGTTGCGG (site TCCAACCCTCC)	0.168
TCGAACCCTTGGGTTCTAACCTGTTGCGG (site TCGAACCCTCC)	0.851
TCGAACCCTTGGGTTCTAACCTGTTGCGG (site TCTAACCCTCC)	0.0521
